According to article PMC8092108, “Mycophenolate suppresses inflammation by inhibiting prostaglandin synthases: a study of molecular and experimental drug repurposing” (PeerJ, 2021):
“And” between values parts separate entries of the source, which are not always exact repeats. Equal entries are not always repeated. Where two headings read alike, the source gives them in different places.

Columns and labels:
[1] = tested on: carrageenan-induced paw edema; test: Carrageenan-induced rat paw edema test; type: in vivo; conditions: for Rat paw edema after treatment: MMF 12.5–50 mg/kg, indomethacin or celecoxib 10 mg/kg oral; for Rat paw size: individual rats 1-7
Method: The in vivo assay was performed by the rat paw edema inhibition test as previously described ([Morris, 2003]; [Winter, Risley & Nuss, 1962]). Forty-nine male adult albino rats weighing […] were obtained from the Animal Breeding Center at the College of Veterinary Medicine, King Faisal University, and were randomly divided into seven groups (n = 7/group). The animal groups included the nontreated control group, carrageenan group, and five groups receiving carrageenan and treated with either indomethacin, celecoxib, or MMF at three doses (12.5, 25, and 50 mg/kg). All rats were allowed free access to food and water. All cages were kept in controlled rooms at 25 °C and exposed to a 12-h light/dark cycle. MMF and two reference drugs, indomethacin and celecoxib, were suspended in 1% NaCMC in normal saline. A 1% carrageenan solution in normal saline was injected into the subplantar area of the right hind paw of rats. One hour before injection of carrageenan, rats were given either indomethacin or celecoxib at a dose rate of 10 mg/kg or MMF at three dose levels of 12.5, 25, and 50 mg/kg by oral administration. […] The measurements were blind to avoid measurement bias. The King Faisal University Ethics Committee (approval no. KFU-REC/2020-10-11) approved all animal experiments. Since no samples were taken from rats, there were no anesthesia procedures. The size of the hind paw was only measured in non-anesthetized rats. At the end of the experiment, all rats were euthanized according to the regulations of the King Faisal University Ethics Committee by an overdose of pentobarbital (200 mg/kg IP) and decapitation. The effect of MMF at different doses on relieving rat paw edema was compared with the control and standard NSAID-treated groups. Significant differences were determined by one-way analysis of variance (ANOVA) with Tukey’s post hoc test. All steps were implemented using GraphPad prism software (GraphPad Software, La Jolla, CA, USA).

COX-1 = target: T1, COX-1 (Ovis aries, UniProt P05979); test: COX inhibitor screening assay, COX-1; type: biochemical
T1 construct: purchased
T1 sequence (P05979 25-600): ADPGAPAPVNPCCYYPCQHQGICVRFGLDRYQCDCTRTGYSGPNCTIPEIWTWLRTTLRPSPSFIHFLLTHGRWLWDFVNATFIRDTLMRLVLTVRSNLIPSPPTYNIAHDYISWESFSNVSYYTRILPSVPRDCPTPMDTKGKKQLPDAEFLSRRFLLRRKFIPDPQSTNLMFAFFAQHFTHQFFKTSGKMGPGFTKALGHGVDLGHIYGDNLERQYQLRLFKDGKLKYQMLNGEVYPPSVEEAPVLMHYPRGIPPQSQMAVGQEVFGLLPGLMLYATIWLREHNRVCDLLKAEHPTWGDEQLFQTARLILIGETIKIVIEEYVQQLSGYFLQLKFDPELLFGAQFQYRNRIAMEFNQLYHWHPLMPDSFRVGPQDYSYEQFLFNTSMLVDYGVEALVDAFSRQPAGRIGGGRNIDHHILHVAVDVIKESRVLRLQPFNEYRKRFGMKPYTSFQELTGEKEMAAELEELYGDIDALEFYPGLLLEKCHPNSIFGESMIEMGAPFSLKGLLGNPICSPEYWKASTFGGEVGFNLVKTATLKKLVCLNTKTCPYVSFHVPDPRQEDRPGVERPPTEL
Method: (§1) The inhibitory effects of the drugs MMF and MPA on COX-1 and COX-2 were measured using the COX inhibitor screening assay kit and LOX inhibitor screening kit. […] Briefly, the reaction buffer (Tris–HCl buffer, pH 8.0) containing 5 mM EDTA, 2 mM phenol, and 1 µM hematin was measured into test tubes. The test drugs were dissolved in dimethyl sulfoxide and added to the tubes to final concentrations of […]. COX-1 or COX-2 was added to the test tubes and preincubated for 10 min at 37 °C. Arachidonic acid was then added, and the tubes were incubated for 2 min at 37 °C. The enzyme immunoassay was used to measure the concentration of the product prostaglandin F2α (PGF2α). The estimated values were determined after comparison to the predetermined standard curve. The IC50 was determined after three different experiments. The selectivity index was calculated from Eq. (1):
(§2) (1) Selectivity index=IC50COX−1/IC50COX−2

COX-2 = target: T2, COX-2 (Homo sapiens, UniProt P35354); test: COX inhibitor screening assay, COX-2; type: biochemical
T2 construct: purchased
T2 sequence (P35354 18-604): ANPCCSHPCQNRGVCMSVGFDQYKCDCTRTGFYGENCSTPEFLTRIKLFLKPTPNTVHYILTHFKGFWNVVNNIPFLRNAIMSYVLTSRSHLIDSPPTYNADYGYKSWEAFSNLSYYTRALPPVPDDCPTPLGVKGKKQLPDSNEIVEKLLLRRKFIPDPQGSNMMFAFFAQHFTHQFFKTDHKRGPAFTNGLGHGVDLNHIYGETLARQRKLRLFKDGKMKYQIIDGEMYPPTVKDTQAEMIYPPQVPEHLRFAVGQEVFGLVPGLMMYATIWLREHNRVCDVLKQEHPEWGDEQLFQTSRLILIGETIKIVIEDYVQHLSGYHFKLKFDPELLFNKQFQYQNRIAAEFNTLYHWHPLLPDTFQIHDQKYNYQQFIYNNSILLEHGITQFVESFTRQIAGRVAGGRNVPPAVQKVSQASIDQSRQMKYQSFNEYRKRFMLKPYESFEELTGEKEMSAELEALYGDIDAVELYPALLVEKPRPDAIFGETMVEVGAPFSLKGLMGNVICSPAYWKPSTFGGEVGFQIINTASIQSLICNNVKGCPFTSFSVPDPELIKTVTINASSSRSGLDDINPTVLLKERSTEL
Method: as §1, §2

12-LOX = test: LOX inhibitor screening kit; type: biochemical
Method: The inhibitory effects of the drugs MMF and MPA on COX-1 and COX-2 were measured using the COX inhibitor screening assay kit and LOX inhibitor screening kit. The assay was performed according to the manufacturer’s directions and previously described methods ([Chowdhury et al., 2008]; [Lee et al., 2004]). Briefly, the reaction buffer (Tris–HCl buffer, pH 8.0) containing 5 mM EDTA, 2 mM phenol, and 1 µM hematin was measured into test tubes. The test drugs were dissolved in dimethyl sulfoxide and added to the tubes to final concentrations of […]. COX-1 or COX-2 was added to the test tubes and preincubated for 10 min at 37 °C. Arachidonic acid was then added, and the tubes were incubated for 2 min at 37 °C. The enzyme immunoassay was used to measure the concentration of the product prostaglandin F2α (PGF2α). The estimated values were determined after comparison to the predetermined standard curve. The IC50 was determined after three different experiments. The selectivity index was calculated from Eq. (1): […]

[2] = cited from earlier work

Cc1ccc(-c2cc(C(F)(F)F)nn2-c2ccc(S(N)(=O)=O)cc2)cc1 [Celecoxib, celecoxib]
Rat paw edema after treatment [1]: significantly relieved
Rat paw size ([1]; celecoxib 10 mg/kg oral, Time (h) 1): 0.75 cm (4×) and 0.71 cm and 0.7 cm and 0.73 cm
Rat paw size ([1]; celecoxib 10 mg/kg oral, Time (h) 2): 0.75 cm and 0.65 cm (2×) and 0.7 cm and 0.67 cm and 0.68 cm and 0.6 cm
Rat paw size ([1]; celecoxib 10 mg/kg oral, Time (h) 3): 0.55 cm and 0.45 cm and 0.5 cm (3×) and 0.49 cm and 0.4 cm
Rat paw size ([1]; celecoxib 10 mg/kg oral, Time (h) 4): 0.5 cm (2×) and 0.48 cm and 0.45 cm (3×) and 0.4 cm
Rat paw size ([1]; celecoxib 10 mg/kg oral, Time (h) 5): 0.4 cm (3×) and 0.45 cm and 0.43 cm and 0.38 cm and 0.42 cm
Rat paw size ([1]; celecoxib 10 mg/kg oral, Time (h) 6): 0.6 cm (2×) and 0.56 cm and 0.55 cm (2×) and 0.65 cm and 0.5 cm

COc1ccc2c(c1)c(CC(=O)O)c(C)n2C(=O)c1ccc(Cl)cc1 [Indomethacin, indomethacin]
Rat paw edema after treatment [1]: significantly relieved
Rat paw size ([1]; indomethacin 10 mg/kg oral, Time (h) 1): 0.7 cm (4×) and 0.75 cm (3×)
Rat paw size ([1]; indomethacin 10 mg/kg oral, Time (h) 2): 0.7 cm and 0.6 cm (3×) and 0.55 cm (2×) and 0.5 cm
Rat paw size ([1]; indomethacin 10 mg/kg oral, Time (h) 3): 0.45 cm and 0.43 cm and 0.4 cm (2×) and 0.42 cm and 0.5 cm and 0.44 cm
Rat paw size ([1]; indomethacin 10 mg/kg oral, Time (h) 4): 0.35 cm and 0.38 cm and 0.4 cm (3×) and 0.39 cm and 0.37 cm
Rat paw size ([1]; indomethacin 10 mg/kg oral, Time (h) 5): 0.35 cm (2×) and 0.37 cm (3×) and 0.4 cm (2×)
Rat paw size ([1]; indomethacin 10 mg/kg oral, Time (h) 6): 0.55 cm and 0.52 cm and 0.5 cm and 0.65 cm and 0.6 cm (2×) and 0.59 cm

COc1c(C)c2c(c(O)c1C/C=C(\C)CCC(=O)O)C(=O)OC2 [Mycophenolic acid, mycophenolic acid]
IC50 (COX-1): 4.62 µM
IC50 (COX-2): 0.14 µM
Selectivity index (COX-2; IC50 COX-1/IC50 COX-2): 33.00
IC50 (12-LOX; printed as 5-LOX in abstract and b38, read-out: IC50 5-LOX): 4.49 µM
IC50 (12-LOX; read-out: IC50 12-LOX): 4.49 µM
Time to maximum serum MPA concentration ([2]; after MMF administration, ref Park, 2011): 60 to 90 min
Clinically attainable MPA concentration ([2]; ref Margolis et al., 1999): 1 to 10 µM

O=c1c(O)c(-c2ccc(O)c(O)c2)oc2cc(O)cc(O)c12 [Quercetin]
IC50 (12-LOX; read-out: IC50 12-LOX): 3.33 µM
